Test results published in patent US20110009446A1, “OLIGOMER-GUANIDINE CLASS CONJUGATES” (Nektar Therapeutics, priority 2008, published 2011).
Counter-ions that a name gives are not always drawn.

Experiments:
[1] = target: T1, noradrenalin transporters (Rattus norvegicus, UniProt Q9WTR4); test: Radioligand binding assay ([3H]-nisoxetine competition) in rat forebrain membranes; conditions: 1.0 nM [3H]-nisoxetine, 0-4° C., 4 hours, Cheng Prusoff correction
T1 construct: membranes prepared from rat forebrain which express noradrenalin transporters; from tissue; host or cells: rat forebrain membranes
T1 sequence (Q9WTR4 1-597): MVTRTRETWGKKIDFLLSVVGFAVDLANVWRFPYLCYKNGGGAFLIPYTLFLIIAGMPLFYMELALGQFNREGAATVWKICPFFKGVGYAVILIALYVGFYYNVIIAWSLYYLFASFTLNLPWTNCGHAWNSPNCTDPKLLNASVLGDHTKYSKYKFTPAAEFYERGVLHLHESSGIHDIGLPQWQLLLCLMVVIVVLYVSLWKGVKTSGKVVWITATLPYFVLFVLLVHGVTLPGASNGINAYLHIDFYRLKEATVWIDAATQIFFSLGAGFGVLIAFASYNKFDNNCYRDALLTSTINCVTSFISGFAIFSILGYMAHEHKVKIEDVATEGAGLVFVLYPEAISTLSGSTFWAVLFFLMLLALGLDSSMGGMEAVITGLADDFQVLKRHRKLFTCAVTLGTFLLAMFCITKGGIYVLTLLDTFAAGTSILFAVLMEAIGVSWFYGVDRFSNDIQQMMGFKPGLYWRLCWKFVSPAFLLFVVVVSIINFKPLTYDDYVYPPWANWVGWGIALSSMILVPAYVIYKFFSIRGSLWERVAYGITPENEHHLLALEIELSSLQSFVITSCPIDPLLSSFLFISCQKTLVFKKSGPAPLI
Procedure: Competition binding experiments are conducted by incubating membranes with 1.0 nM of radioligand, [^3H]-nisoxetine, in the presence of variable concentrations (0.1 nM to 3 μM and 1 nM to 30 μM for parent and PEG conjugates, respectively) of test compounds. The reaction is carried out in 50 mM Tris-HCl (pH 7.4), containing 300 mM NaCl and 5 mM KCl at 0-4° C. for 4 hours. Following incubations, the membranes are washed, and the bound radioactivity is measured. Non-specific binding is measured in the presence of excess desipramine (1.0 μM) as the cold ligand; this value is subtracted from the total binding to yield the specific binding at each test compound concentration.
Ki is obtained using the Cheng Prusoff correction using experimental Kd values that are previously determined under these assay conditions.

[2] = system: visceral pain in mice (CD-1 male mice); test: Analgesic assay (acetic acid-induced writhing); type: in vivo
Procedure: An analgesic assay was used to determine whether a given compound can reduce and/or prevent visceral pain in mice. The assay utilized CD-1 male mice (5-8 mice per group), each mouse being approximately 0.015-0.030 kg on the study day. Mice were treated according to standard protocols. Mice were given a single “pretreatment” dose of a compound lacking covalent attachment of a water-soluble, non-peptidic oligomer, a corresponding version comprising the compound covalently attached to a water-soluble, non-peptidic oligomer, or control solution (IV, SC, IP or orally) thirty minutes prior to the administration of the acetic acid solution. The animal was given an IP injection of an irritant (acetic acid) that induces “writhing” which may include: contractions of the abdomen, twisting and turning of the trunk, arching of the back and the extension of the hindlimbs. Mice were given a single IP injection (0.1 mL/10 g bodyweight) of a 0.5% acetic acid solution. After the injection the animals were returned to their observation enclosure and their behavior was observed. Contractions were counted between 0 and 20 minutes after the injection. The animals were used once. Each tested article was dosed at 1, 3 and 10 mg/kg (n=5 animals/dose).

[3] = 10 mg/kg, 5 animals, acetic acid writhing

Ki [1] | Compound | Mean (contractions/writhing counted) ([2]; 10 mg/kg single pretreatment dose 30 min before IP 0.5% acetic acid, contractions counted 0-20 min, CD-1 male mice) | No. of Responders [2, 3] | Responding Fraction [2, 3] | % Reduction in writhing ([2]; 10 mg/kg, CD-1 male mice, acetic acid writhing)
594 nM | N=C(N)N1CCc2ccccc2C1 [Debrisoquine sulfate, debrisoquine sulfate] | – | – | – | –
– | N=C(N)N1CCc2ccccc2C1 [Debrisoquine] | 49.6 | 0 | 0.00 | 10.6%
